Reference: publication PMC5608406, “In vivo activation of latent HIV with a synthetic bryostatin analog effects both latent cell "kick" and "kill" in strategy for virus eradication” (PLoS Pathogens, 2017)

Legend:
[1] = tested on: primary CD4+ T cells; test: Induction of CD69 expression in primary CD4+ T cells; assay type: cell-based, human; conditions: 24h
Procedure: Primary human cells from HIV seronegative individuals were cultured in “RF10 medium” consisting of RPMI 1640 medium supplemented with 10% fetal bovine serum (FBS, Omega Scientific), 100 U/mL of penicillin, and 100 μg/mL of streptomycin (Invitrogen). PBMCs were isolated using Ficoll-Paque Plus separation (GE Healthcare). Primary CD4+ T cells were separated from PBMCs by negative immunomagnetic selection using the CD4+ T cell Isolation Kit (Miltenyi Biotec) according to the manufacturer’s instructions. Cells were then exposed to compound for 24 hours before staining and flow cytometric analysis of CD69 levels. Compound incubations were performed by seeding 10^5 cells/well in 100 μL of RF10 media containing the appropriate concentration of compound in wells of a v-bottomed 96-well plate. Bryostatin 1 (Tocris bioscience) and Prostratin (LC Laboratories) were obtained commercially, and bryologs or prostratin analogs were synthesized as previously described.
For human PBMC CD69 induction experiments, cells were stained with CD69-ECD (Beckman Coulter 6607110). During staining, cells were incubated at 4 °C for 20 minutes, washed with 2% FBS in PBS, and then resuspended in 2% paraformaldehyde. Stained samples were stored at 4 °C.
Flow cytometry samples were analyzed using a Cytomics FC 500 (Beckman Coulter) or a LSR Fortessa (BD Biosciences) flow cytometer. Data were analyzed using FlowJo (v7) software.

[2] = tested on: murine splenocytes; test: In vivo bioactivity (CD69/CD25 in splenocytes) in C57/bl6 mice; conditions: intraperitoneal injection, 24h post-injection, maximum over ascending doses
Procedure: C57/bl6 mice were obtained from the UCLA Department of Radiation Oncology. Compounds were suspended in DMSO and then further diluted in RF10 media to produce a final volume of 500 μL (containing a maximum 4% DMSO). These 500 μL volumes were administered to mice by intraperitoneal injection. Mice were monitored for acute toxicities and then sacrificed at the indicated times. Spleens were removed and disaggregated using a steel mesh, and then filtered through a 40 μm filter to produce a single-cell suspension. The resultant splenocytes were then stained for flow cytometry to analyze surface expression of relevant markers.
During standard flow cytometry staining, samples of 10^5 cells were suspended in 50 μL of a 1:1 dilution of phosphate buffered saline (PBS):Human AB serum (Sigma). Staining of C57/bl6 mouse splenocytes was performed by adding the following anti-mouse fluorescent conjugated antibodies: CD3-Fluorescein isothiocyanate (FITC, eBioscience 11-0032-82); CD69-Phycoerythrin (PE, eBioscience 12-0691-83); and CD4-Allophycocyanin (APC, eBioscience 17-0041-83). In some experiments CD4-APC was replaced with CD25-APC (eBioscience 17-0251-82) and CD4-Phycoerythrin Cyanin 7 (PC7, eBioscience 25-0041-82). For humanized mouse studies, PBMC and splenocytes from BLT mice were stained with anti-mouse CD45-Alexa 700 (Biolegend 103128) and the following anti-human antibodies: CD45-e450 (eBioscience 48-0459-42); CD3-APC-780 (eBioscience; 47-0038-42); CD4-V500 (BD biosciences; 560768); CD8-Peridinin chlorophyll protein (PerCP)-710 (eBioscience 46-0087-42); CD25-PE (Beckman IM0479U); CD69-APC (Biolegend 310910); CD14-PE-Cy7 (Biolegend 325618). Cells were separately stained for anti-human CD45 e450- (eBioscience 48-0459-42) and anti-HA-Biotin PE (Roche 12158167001) followed by a secondary Streptavidin, R-Phycoerythrin Conjugate (Invitrogen s866) stain. This two-step stain was performed by incubating 1-2x10^6 cells at 4°C for 20–30 min, washing with 2% FBS in PBS, then adding the secondary stain, incubating again at 4°C for 20–30 min, and washing with 2% FBS in PBS before fixation with 2% paraformaldehyde. In some experiments, cell death was also evaluated by GHOST Red 780 (Tonbo Biosciences 13–0865) or Zombie Yellow (Biolegend 423104) stains. For this procedure, 10^6 cells were suspended in 100 μL PBS, and then the Zombie yellow and GHOST Red 780 dyes added. Cells were incubated for 20 min at room temperature in the dark and then washed twice with 2% FBS in PBS. Cells were then fixed with 2% paraformaldehyde and incubated for 20 min in the dark. In some experiments cells were then washed with 2% FBS in PBS, resuspended in 1:1 PBS:Human AB serum and then stained for human CD45 and HA, CD3-PE-Cy5 (Biolegend 300310), CD4-ECD (Beckman 6604727), CD8 Per-CO710 (eBioscience 46-0087-42) and CD3-APC (Cell signaling 9602S) as described above.

[3] = phase I, ART-treated patients; cited from earlier work

SMILES | CD69 expression [1] | CD4+ splenocytes expressing CD69 [2] | safety in patients [3]
CC(=O)O[C@@]12C[C@@H](C)[C@@]3(O)[C@@H](C=C(CO)C[C@]4(O)C(=O)C(C)=C[C@@H]34)[C@@H]1C2(C)C [Prostratin] | can each induce expression | – | –
CCC/C=C/C=C/C(=O)O[C@H]1/C(=C/C(=O)OC)C[C@H]2C[C@H]([C@@H](C)O)OC(=O)C[C@H](O)C[C@@H]3C[C@H](OC(C)=O)C(C)(C)[C@](O)(C[C@@H]4C/C(=C/C(=O)OC)C[C@H](/C=C/C(C)(C)[C@]1(O)O2)O4)O3 [bryostatin 1] | can each induce expression | approximately 60% | safe at low doses
